{"source": "paper PMC11345841", "about": "“Exploring 2-Sulfonylpyrimidine Warheads as Acrylamide Surrogates for Targeted Covalent Inhibition: A BTK Story” (Journal of Medicinal Chemistry, 2024)", "key": {"TEC": {"target": "T1, TEC (Homo sapiens, UniProt P42680)", "T1 construct": "purchased Eurofins DiscoverX KINOMEscan (scanTK)", "T1 sequence (P42680 1-631)": "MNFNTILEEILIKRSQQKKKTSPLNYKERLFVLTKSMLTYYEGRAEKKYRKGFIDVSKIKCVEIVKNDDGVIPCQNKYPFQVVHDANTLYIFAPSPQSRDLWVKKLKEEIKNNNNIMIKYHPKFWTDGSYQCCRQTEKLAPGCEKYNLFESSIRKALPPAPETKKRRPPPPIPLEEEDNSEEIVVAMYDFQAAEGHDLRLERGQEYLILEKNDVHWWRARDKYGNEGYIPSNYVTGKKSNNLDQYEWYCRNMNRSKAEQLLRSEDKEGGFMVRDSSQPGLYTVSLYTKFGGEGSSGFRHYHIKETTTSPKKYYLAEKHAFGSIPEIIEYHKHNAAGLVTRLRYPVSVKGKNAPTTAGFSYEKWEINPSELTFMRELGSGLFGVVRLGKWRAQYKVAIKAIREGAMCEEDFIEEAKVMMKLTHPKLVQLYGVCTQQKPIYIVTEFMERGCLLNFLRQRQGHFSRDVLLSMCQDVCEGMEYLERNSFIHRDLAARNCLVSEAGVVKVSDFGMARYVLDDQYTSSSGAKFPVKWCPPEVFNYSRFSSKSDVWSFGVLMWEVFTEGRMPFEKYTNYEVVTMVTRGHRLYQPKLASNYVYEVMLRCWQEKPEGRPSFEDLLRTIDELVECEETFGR", "experiment": "KINOMEscan ScanTK", "type": "binding"}, "[1]": {"target": "T2, TYK2(JH2domain-pseudokinase) (Homo sapiens, UniProt P29597)", "T2 construct": "TYK2(JH2domain-pseudokinase); purchased Eurofins DiscoverX KINOMEscan (scanTK)", "T2 sequence (P29597 575-869 limits assumed)": "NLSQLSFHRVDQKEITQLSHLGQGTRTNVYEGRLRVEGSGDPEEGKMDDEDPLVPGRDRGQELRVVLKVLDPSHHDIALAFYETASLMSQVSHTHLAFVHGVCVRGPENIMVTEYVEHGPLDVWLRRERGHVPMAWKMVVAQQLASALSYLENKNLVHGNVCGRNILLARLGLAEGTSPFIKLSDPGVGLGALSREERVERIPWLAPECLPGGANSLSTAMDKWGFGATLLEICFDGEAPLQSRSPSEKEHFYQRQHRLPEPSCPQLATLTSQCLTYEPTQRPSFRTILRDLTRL", "experiment": "KINOMEscan ScanTK", "type": "binding"}, "PDGFRB": {"target": "T3, PDGFRB (Homo sapiens, UniProt P09619)", "T3 construct": "purchased Eurofins DiscoverX KINOMEscan (scanTK)", "experiment": "KINOMEscan ScanTK", "type": "binding"}, "[2]": {"target": "T4, EGFR(L747-E749del, A750P) (Homo sapiens, UniProt P00533, A750P/DEL747-749)", "T4 construct": "purchased Eurofins DiscoverX KINOMEscan (scanTK)", "T4 sequence (P00533 with tags, fused parts or gaps DEL747-749/A750P limits assumed)": "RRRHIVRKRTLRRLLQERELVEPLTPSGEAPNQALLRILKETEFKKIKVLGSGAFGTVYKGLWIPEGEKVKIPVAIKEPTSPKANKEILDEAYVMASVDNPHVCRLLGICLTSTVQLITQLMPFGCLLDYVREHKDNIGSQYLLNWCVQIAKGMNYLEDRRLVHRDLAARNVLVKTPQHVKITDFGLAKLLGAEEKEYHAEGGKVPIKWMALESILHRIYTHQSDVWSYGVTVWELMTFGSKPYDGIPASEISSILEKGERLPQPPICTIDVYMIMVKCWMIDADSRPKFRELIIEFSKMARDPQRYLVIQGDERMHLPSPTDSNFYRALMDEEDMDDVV", "experiment": "KINOMEscan ScanTK", "type": "binding"}, "KIT(D816H)": {"target": "T5, KIT(D816H) (Homo sapiens, UniProt P10721, D816H)", "T5 construct": "purchased Eurofins DiscoverX KINOMEscan (scanTK)", "T5 sequence (P10721 26-976 D816H)": "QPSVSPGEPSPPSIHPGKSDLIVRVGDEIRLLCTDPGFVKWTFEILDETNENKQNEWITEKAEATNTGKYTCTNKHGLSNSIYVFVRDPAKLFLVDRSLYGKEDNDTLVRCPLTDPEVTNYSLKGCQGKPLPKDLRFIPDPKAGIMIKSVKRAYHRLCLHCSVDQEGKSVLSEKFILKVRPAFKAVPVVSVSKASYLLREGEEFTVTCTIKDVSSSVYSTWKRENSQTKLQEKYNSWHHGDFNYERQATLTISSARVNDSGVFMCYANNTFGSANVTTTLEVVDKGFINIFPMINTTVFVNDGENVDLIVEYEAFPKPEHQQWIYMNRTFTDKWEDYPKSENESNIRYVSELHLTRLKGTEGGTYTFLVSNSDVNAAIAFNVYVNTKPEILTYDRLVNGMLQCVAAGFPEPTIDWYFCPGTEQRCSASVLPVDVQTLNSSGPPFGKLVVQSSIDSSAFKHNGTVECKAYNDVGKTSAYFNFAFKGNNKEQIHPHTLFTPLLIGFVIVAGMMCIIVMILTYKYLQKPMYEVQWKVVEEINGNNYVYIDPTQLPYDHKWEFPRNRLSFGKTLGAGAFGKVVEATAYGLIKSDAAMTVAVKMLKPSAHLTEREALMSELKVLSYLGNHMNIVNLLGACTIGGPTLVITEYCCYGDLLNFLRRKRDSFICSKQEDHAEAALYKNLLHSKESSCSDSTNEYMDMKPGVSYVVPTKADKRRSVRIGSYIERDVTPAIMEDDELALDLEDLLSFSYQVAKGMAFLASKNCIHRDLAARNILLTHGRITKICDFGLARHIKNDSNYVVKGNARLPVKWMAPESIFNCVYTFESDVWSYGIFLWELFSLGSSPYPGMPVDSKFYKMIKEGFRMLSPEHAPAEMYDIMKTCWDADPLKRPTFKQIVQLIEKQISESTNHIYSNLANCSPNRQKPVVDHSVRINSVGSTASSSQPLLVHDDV", "experiment": "KINOMEscan ScanTK", "type": "binding"}, "EPHB1": {"target": "T6, EPHB1 (Homo sapiens, UniProt P54762)", "T6 construct": "purchased Eurofins DiscoverX KINOMEscan (scanTK)", "T6 sequence (P54762 18-984)": "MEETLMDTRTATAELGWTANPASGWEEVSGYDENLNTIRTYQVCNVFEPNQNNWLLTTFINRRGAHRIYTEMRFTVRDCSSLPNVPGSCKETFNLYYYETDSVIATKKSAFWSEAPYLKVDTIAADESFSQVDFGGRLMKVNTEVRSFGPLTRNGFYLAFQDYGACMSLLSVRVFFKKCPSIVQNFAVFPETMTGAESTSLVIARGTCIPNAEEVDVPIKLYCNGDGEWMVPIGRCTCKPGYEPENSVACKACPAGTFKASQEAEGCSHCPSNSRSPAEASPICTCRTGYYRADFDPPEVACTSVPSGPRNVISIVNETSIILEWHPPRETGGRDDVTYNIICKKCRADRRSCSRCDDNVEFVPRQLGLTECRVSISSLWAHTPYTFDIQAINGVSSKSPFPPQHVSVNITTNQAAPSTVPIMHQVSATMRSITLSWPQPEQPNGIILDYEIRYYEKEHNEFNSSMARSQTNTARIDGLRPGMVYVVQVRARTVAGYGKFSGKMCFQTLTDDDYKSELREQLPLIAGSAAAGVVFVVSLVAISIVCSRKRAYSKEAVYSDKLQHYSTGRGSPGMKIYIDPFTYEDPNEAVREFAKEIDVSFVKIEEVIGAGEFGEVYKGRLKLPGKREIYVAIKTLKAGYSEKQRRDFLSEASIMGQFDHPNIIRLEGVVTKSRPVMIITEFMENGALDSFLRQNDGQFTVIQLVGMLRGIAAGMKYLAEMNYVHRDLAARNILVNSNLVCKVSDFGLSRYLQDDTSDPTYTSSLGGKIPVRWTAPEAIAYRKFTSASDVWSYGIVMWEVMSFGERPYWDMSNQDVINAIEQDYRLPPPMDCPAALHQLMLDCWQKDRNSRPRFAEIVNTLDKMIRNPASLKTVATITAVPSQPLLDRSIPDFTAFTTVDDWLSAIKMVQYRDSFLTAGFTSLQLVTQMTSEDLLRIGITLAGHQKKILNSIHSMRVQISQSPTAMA", "experiment": "KINOMEscan ScanTK", "type": "binding", "settings": "EPHB1"}, "DDR1": {"target": "T7, DDR1 (Homo sapiens, UniProt Q08345)", "T7 construct": "purchased Eurofins DiscoverX KINOMEscan (scanTK)", "T7 sequence (Q08345 19-913)": "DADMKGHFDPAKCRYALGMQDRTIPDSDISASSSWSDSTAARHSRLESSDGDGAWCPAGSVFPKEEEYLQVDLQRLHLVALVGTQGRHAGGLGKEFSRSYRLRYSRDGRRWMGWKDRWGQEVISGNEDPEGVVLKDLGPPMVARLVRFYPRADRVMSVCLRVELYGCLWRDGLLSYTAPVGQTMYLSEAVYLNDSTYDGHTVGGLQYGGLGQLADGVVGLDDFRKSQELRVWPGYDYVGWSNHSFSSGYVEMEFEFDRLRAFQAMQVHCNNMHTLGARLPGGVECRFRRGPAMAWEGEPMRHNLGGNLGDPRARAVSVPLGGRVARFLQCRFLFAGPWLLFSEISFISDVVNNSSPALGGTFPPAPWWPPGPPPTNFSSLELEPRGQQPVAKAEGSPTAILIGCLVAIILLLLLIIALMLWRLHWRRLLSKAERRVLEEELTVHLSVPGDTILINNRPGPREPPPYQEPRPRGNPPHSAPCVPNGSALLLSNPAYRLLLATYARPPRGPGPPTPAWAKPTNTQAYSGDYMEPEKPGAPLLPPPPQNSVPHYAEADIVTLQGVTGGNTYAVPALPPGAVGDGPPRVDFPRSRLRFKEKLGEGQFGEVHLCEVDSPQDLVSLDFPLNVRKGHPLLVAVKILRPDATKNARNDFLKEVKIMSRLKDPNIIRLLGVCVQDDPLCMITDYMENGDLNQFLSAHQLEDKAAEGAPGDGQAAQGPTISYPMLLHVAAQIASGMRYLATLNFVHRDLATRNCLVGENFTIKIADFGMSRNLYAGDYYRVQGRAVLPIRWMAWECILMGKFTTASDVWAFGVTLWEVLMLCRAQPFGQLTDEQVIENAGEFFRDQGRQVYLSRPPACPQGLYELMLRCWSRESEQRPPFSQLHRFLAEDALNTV", "experiment": "KINOMEscan ScanTK", "type": "binding"}, "ABL2": {"target": "T8, ABL2 (Homo sapiens, UniProt P42684)", "T8 construct": "purchased Eurofins DiscoverX KINOMEscan (scanTK)", "experiment": "KINOMEscan ScanTK", "type": "binding"}, "RET": {"target": "T9, RET (Homo sapiens, UniProt P07949)", "T9 construct": "purchased Eurofins DiscoverX KINOMEscan (scanTK)", "experiment": "KINOMEscan ScanTK", "type": "binding"}, "BTK, full length (2–659)": {"target": "BTK, full length (2–659) (Homo sapiens, UniProt Q06187)", "sequence (Q06187 2-659)": "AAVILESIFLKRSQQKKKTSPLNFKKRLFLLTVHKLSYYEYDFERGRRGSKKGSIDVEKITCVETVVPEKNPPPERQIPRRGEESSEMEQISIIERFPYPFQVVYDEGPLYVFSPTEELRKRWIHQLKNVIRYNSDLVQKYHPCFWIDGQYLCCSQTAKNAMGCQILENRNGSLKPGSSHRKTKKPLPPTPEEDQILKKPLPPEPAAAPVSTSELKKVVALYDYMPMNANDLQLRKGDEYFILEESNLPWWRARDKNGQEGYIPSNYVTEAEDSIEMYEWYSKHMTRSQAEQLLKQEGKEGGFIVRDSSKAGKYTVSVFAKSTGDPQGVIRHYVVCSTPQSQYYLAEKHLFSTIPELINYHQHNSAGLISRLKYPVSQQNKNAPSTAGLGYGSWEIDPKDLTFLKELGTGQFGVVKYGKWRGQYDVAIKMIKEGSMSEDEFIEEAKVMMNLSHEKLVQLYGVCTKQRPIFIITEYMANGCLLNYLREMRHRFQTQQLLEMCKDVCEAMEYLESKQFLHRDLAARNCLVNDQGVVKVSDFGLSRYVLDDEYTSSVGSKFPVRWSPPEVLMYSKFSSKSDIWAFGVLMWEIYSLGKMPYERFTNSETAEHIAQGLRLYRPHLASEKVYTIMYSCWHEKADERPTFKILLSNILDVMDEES", "experiment": "Kinact/Ki determination, PhosphoSens progress curve analysis", "type": "biochemical", "settings": "BTK", "method": "Nonlinear regression was performed using the Solver algorithm in Excel. […] Two-step Kinact/Ki fits were extracted from the progress curve analysis of all compounds against BTK, enabling independent Kinact and Ki determinations."}, "[3]": {"target": "T10, ABL1(Q252H)-phosphorylated (Homo sapiens, UniProt P00519, Q252H)", "T10 construct": "purchased Eurofins DiscoverX KINOMEscan (scanTK)", "experiment": "KINOMEscan ScanTK", "type": "binding"}, "BLK": {"target": "T11, BLK (Homo sapiens, UniProt P51451)", "T11 construct": "purchased Eurofins DiscoverX KINOMEscan (scanTK)", "T11 sequence (P51451 whole entry)": "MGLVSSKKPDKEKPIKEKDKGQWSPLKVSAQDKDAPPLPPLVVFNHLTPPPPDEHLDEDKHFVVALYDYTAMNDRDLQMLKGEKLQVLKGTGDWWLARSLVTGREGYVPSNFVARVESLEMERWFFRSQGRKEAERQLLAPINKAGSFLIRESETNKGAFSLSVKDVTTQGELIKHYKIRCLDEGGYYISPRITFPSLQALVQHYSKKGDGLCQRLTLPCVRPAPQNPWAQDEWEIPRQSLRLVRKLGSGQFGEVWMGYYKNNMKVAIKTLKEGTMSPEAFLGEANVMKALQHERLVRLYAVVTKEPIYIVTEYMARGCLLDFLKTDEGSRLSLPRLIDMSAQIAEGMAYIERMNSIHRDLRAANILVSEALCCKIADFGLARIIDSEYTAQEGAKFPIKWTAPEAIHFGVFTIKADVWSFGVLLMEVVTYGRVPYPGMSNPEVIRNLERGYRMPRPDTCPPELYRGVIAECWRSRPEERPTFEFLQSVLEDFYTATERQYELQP", "experiment": "KINOMEscan ScanTK", "type": "binding", "settings": "BLK"}, "MET": {"target": "T12, MET (Homo sapiens, UniProt P08581)", "T12 construct": "purchased Eurofins DiscoverX KINOMEscan (scanTK)", "T12 sequence (P08581 25-1390)": "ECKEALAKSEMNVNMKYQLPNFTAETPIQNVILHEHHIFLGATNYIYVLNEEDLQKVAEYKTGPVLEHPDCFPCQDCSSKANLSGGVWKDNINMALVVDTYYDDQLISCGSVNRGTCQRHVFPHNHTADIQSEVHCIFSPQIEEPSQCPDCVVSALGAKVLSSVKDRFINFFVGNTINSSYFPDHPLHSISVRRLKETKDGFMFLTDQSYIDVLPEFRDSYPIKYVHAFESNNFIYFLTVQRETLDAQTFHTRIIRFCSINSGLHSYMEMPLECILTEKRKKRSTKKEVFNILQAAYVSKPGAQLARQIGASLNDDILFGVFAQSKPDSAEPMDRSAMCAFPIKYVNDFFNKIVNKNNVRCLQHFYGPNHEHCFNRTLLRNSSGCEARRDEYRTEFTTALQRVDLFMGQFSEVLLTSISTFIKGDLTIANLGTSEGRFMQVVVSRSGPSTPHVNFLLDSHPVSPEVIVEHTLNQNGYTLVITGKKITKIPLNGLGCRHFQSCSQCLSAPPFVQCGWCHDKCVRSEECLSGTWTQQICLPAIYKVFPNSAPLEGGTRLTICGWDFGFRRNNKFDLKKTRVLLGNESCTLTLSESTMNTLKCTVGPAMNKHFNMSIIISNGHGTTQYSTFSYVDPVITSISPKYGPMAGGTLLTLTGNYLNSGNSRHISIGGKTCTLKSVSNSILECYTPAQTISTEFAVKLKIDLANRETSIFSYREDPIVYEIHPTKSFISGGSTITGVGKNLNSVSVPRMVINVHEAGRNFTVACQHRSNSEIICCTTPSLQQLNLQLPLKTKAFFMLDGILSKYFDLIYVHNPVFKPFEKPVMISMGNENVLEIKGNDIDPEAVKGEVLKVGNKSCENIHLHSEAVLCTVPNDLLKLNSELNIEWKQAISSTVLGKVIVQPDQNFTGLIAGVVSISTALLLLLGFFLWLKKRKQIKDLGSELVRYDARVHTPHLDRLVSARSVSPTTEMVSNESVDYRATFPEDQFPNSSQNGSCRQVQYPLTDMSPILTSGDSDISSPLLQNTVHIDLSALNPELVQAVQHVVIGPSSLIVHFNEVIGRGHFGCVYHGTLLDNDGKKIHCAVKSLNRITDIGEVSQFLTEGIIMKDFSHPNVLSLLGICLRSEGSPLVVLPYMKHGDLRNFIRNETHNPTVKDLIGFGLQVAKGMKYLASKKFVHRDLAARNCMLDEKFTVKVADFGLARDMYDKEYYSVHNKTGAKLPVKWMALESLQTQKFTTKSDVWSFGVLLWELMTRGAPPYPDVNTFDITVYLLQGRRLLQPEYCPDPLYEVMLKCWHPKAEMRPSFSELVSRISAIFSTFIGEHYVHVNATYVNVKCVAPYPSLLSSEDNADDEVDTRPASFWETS", "experiment": "KINOMEscan ScanTK", "type": "binding"}, "[4]": {"settings": "@1000nM, read-out: % difference (compound - Ib %Control)"}}, "note": "Like-named read-outs stand apart in the source and are kept apart here."}
{"smiles": "COC(=O)c1cnc(S(C)(=O)=O)nc1N1CCCC(n2nc(-c3ccc(Oc4ccccc4)cc3)c3c(N)ncnc32)C1", "note": "(stereo not shown) [Compound 8b, Methyl 4-(3-(4-Amino-3-(4-phenoxyphenyl)-1H-pyrazolo[3,4-d]pyrimidin-1-yl)piperidin-1-yl)-2-(methylsulfonyl)pyrimidine-5-carboxylate]", "values": [{"measurement": "remaining binding at 1 µM", "setting": "TEC; @1000nM, read-out: %Control", "result": 32, "unit": "%"}, {"measurement": "remaining binding at 1 µM", "setting": "TEC; read-out: %Control @1000nM", "result": 32, "unit": "%"}, {"measurement": "difference in %Control versus Ib at 1 µM", "setting": "[1]; [4]", "result": 8, "unit": "%"}, {"measurement": "remaining binding at 1 µM", "setting": "[1]; @1000nM, read-out: %Control", "result": 96, "unit": "%"}, {"measurement": "remaining binding at 1 µM", "setting": "[1]; read-out: %Control @1000nM", "result": 96, "unit": "%"}, {"measurement": "remaining binding at 1 µM", "setting": "PDGFRB; @1000nM, read-out: %Control", "result": 68, "unit": "%"}, {"measurement": "remaining binding at 1 µM", "setting": "PDGFRB; read-out: %Control @1000nM", "result": 68, "unit": "%"}, {"measurement": "difference in %Control versus compound Ib at 1 µM", "setting": "[2]; @1000nM", "result": 69.9, "unit": "%"}, {"measurement": "remaining binding at 1 µM", "setting": "[2]; @1000nM, read-out: %Control", "result": 73, "unit": "%"}, {"measurement": "remaining binding at 1 µM", "setting": "[2]; read-out: %Control @1000nM", "result": 73, "unit": "%"}, {"measurement": "remaining binding at 1 µM", "setting": "KIT(D816H); @1000nM, read-out: %Control", "result": 98, "unit": "%"}, {"measurement": "remaining binding at 1 µM", "setting": "KIT(D816H); read-out: %Control @1000nM", "result": 98, "unit": "%"}, {"measurement": "difference in % of control versus compound Ib at 1 µM", "setting": "EPHB1; @1000nM", "result": -2, "unit": "%"}, {"measurement": "remaining binding at 1 µM", "setting": "EPHB1; @1000nM, read-out: %Control", "result": 88, "unit": "%"}, {"measurement": "remaining binding at 1 µM", "setting": "EPHB1; read-out: %Control @1000nM", "result": 88, "unit": "%"}, {"measurement": "difference in %Control from compound Ib at 1 µM", "setting": "DDR1; @1000nM", "result": -18, "unit": "%"}, {"measurement": "remaining binding at 1 µM", "setting": "DDR1; @1000nM, read-out: %Control", "result": 60, "unit": "%"}, {"measurement": "remaining binding at 1 µM", "setting": "DDR1; read-out: %Control @1000nM", "result": 60, "unit": "%"}, {"measurement": "difference in %Control from reference compound Ib at 1 µM", "setting": "ABL2; @1000nM", "result": 38, "unit": "%"}, {"measurement": "remaining binding at 1 µM", "setting": "ABL2; @1000nM, read-out: %Control", "result": 79, "unit": "%"}, {"measurement": "remaining binding at 1 µM", "setting": "ABL2; read-out: %Control @1000nM", "result": 79, "unit": "%"}, {"measurement": "remaining binding at 1 µM", "setting": "RET; @1000nM, read-out: %Control", "result": 56, "unit": "%"}, {"measurement": "remaining binding at 1 µM", "setting": "RET; read-out: %Control @1000nM", "result": 56, "unit": "%"}, {"measurement": "Ki", "setting": "BTK, full length (2–659)", "result": "0.0242 ± 0.00095", "unit": "µM"}, {"measurement": "kinact", "setting": "BTK, full length (2–659)", "result": "0.00792 ± 0.00019", "unit": "s⁻¹"}, {"measurement": "kinact/KI", "setting": "BTK, full length (2–659); read-out: Kinact/Ki", "result": 328000, "unit": "M⁻¹ s⁻¹"}, {"measurement": "difference in %Control versus reference Ib at 1 µM", "setting": "[3]; [4]", "result": -2, "unit": "%"}, {"measurement": "remaining binding at 1 µM", "setting": "[3]; @1000nM, read-out: %Control", "result": 92, "unit": "%"}, {"measurement": "remaining binding at 1 µM", "setting": "[3]; read-out: %Control @1000nM", "result": 92, "unit": "%"}, {"measurement": "difference in %Control vs reference Ib at 1 µM", "setting": "BLK; [4]", "result": 0.35, "unit": "%"}, {"measurement": "remaining binding at 1 µM", "setting": "BLK; @1000nM, read-out: %Control", "result": 0.4, "unit": "%"}, {"measurement": "remaining binding at 1 µM", "setting": "BLK; read-out: %Control @1000nM", "result": 0.4, "unit": "%"}, {"measurement": "remaining binding at 1 µM", "setting": "MET; @1000nM, read-out: %Control", "result": 100, "unit": "%"}, {"measurement": "remaining binding at 1 µM", "setting": "MET; read-out: %Control @1000nM", "result": 100, "unit": "%"}]}
